The structures appear in SMILES notation. pIC50: −log10 of the molar value.

The target in assay [1] is T1, cholesterol ester transfer protein (CETP) (Homo sapiens, UniProt P11597).
T1 construct: CETP is obtained in partially purified form from human plasma by differential centrifugation and column chromatography; from tissue; host or cells: human plasma
T1 sequence (P11597 18-493): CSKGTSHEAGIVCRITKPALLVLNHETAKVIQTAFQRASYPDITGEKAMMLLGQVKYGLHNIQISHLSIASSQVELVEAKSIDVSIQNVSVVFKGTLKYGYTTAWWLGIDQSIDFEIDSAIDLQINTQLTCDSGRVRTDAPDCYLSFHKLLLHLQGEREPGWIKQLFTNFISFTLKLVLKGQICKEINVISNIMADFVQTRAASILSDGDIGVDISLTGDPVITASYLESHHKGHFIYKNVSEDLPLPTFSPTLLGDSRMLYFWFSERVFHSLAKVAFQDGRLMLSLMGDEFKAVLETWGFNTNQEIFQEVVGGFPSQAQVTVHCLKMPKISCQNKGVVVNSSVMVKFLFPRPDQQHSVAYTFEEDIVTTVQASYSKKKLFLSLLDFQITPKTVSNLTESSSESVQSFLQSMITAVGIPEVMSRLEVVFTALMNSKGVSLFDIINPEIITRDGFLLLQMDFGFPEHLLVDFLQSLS
Kind of assay: CETP inhibition testing: transfer of 3H-cholesterol ester from human HD lipoproteins to biotinylated LD lipoproteins (SPA). The format is biochemical. Particulars: 3H-CE transfer HDL to biotin-LDL, 37° C., 18 h. The protocol: CETP is obtained in partially purified form from human plasma by differential centrifugation and column chromatography and used for the test. To this end, human plasma is adjusted to a density of 1.21 g per ml using NaBr and centrifuged at 4° C. for 18 h at 50,000 rpm. The bottom fraction (d>1.21 g/ml) is applied to a Sephadex®phenyl-sepharose 4B (Pharmacia) column, washed with 0.15M NaCl/0.001M trisHCl pH 7.4 and then eluted with dist. water. The CETP-active fractions are pooled, dialysed against 50 mM Na acetate pH 4.5 and applied to a CM-Sepharose® (Pharmacia) column. The column is then eluted using a linear gradient (0-1M NaCl). The pooled CETP fractions are dialysed against 10 mM trisHCl pH 7.4 and then further purified by chromatography on a Mono Q® column (Pharmacia).
50 ml of fresh human EDTA plasma is adjusted to a density of 1.12 using NaBr and centrifuged for 18 h at 50,000 rpm at 4° C. in a Ty 65 rotor. The upper phase is used to obtain cold LDL. The lower phase is dialysed against 3×4 l of PDB buffer (10 mM tris/HCl pH 7.4, […], 1 mM EDTA, 0.02% NaN3). 20 μl of ^3 H-cholesterol (Dupont NET-725; 1 μC/μl dissolved in ethanol) are then added per 10 ml of retentate volume and incubation is carried out at 37° C. under N2 for 72 h.
The mixture is then adjusted to the density 1.21 using NaBr and centrifuged at 20° C. at 50,000 rpm in the Ty 65 rotor for 18 h. The upper phase is recovered and the lipoprotein fractions are purified by gradient centrifugation. To this end, the isolated, labelled lipoprotein fraction is adjusted to a density of 1.26 using NaBr. Each 4 ml of this solution are covered with a layer of 4 ml of a solution of density 1.21 and 4.5 ml of a solution of density 1.063 (density solutions of PDB buffer and NaBr) in centrifuge tubes (SW 40 rotor) and then centrifuged in the SW 40 rotor for 24 h at 38,000 rpm and 20° C. The intermediate layer containing the labelled HDL lying between the densities 1.063 and 1.21 is dialyzed against 3×100 volumes of PDB buffer at 4° C.
The retentate contains radiolabelled ^3 H-CE-HDL which, adjusted to about 5×10^6 cpm per ml, is used for the test.
For testing the CETP activity, the transfer of ^3 H-cholesterol ester from human HD lipoproteins to biotinylated LD lipoproteins is measured.
The reaction is ended by addition of streptavidin-SPA® beads (Amersham) and the transferred radioactivity is determined directly in a liquid scintillation counter.
In the test mixture, 10 μl of HDL-^3 H-cholesterol ester (~50,000 cpm) are incubated at 37° C. for 18 h with 10 μl of biotin-LDL (Amersham) in 50 mM Hepes/0.15 m NaCl/0.% bovine serum albumin/0.05% NaN3 pH 7.4 with 10 μl of CETP (1 mg/ml) and 3 μl of solution of the substance to be tested (dissolved in 10% DMSO/1% RSA). 200 μl of the SPA-streptavidin bead solution (Amersham TRKQ 7005) are then added, the mixture is incubated further for 1 h with shaking and then measured in the scintillation counter. As controls, corresponding incubations with 10 μl of buffer, 10 μl of CETP at 4° C. and 10 μl of CETP at 37° C. are used. The activity transferred into the control mixtures with CETP at 37° C. is rated as 100% transfer. The substance concentration at which this transfer is reduced by half is indicated as the IC50 value.
In the following table, the IC50 values (mol/l) are indicated for CETP inhibitors: […]

Assay [2] in a line: Oral activity in hamsters: HDL cholesterol and triglycerides. The format is in vivo, Syrian golden hamsters. The protocol:
(§1) Syrian golden hamsters from in-house breeding are anaesthetized after fasting for 24 hours (0.80 mg/kg of atropine, 0.80 mg/kg of Ketavet® s.c. 30' later 50 mg/kg of Nembutal i.p.). The jugular vein is then exposed and cannulated. The test substance is dissolved in a suitable solvent (as a rule Adalat placebo solution: 60 g of glycerol, 100 ml of H2 O, PEG-400 to 1000 ml) and administered to the animals via a PE catheter inserted into the jugular vein. The control animals receive the same volume of solvent without test substance. The vein is then tied off and the wound is closed. After various times--up to 24 hours after administration of the test substance--blood (about 250 μl) is removed from the animals by puncture of the retro-orbital venous plexus. Clotting is concluded by incubation at 4° C. overnight, then centrifugation is carried out at 6000 g for 10 minutes. In the serum thus obtained, the content of cholesterol and triglycerides is determined with the aid of modified commercially available enzyme tests (cholesterol enzymatic 14366 Merck, triglycerides 14364 Merck). Serum is suitably diluted using physiological saline solution.
100 μl of serum dilution are mixed with 100 μl of […] in 96-well plates and incubated at room temperature for 10 minutes. The optical density is then determined at a wavelength of 492 nm using an automatic plate-reading apparatus (SLT Spectra). The triglyceride/cholesterol concentration contained in the samples is determined with the aid of a standard curve measured in parallel.
The determination of the content of HDL cholesterol is carried out after precipitation of the ApoB-containing lipoproteins by means of a reagent mixture (Sigma 352-4 HDL cholesterol reagent) according to the manufacturer's instructions.
In experiments to determine the oral activity, test substance dissolved in DMSO and suspended in 0.5% Tylose is administered orally by means of stomach tube to Syrian golden hamsters from in-house breeding. The control animals receive identical volumes of solvent without test substance. […]

The nature of assay [3]: HDL cholesterol after intravenous administration to hamsters. The format is in vivo, Syrian golden hamsters. Particulars: 20 mg/kg intravenous; 24 hours after substance administration. The method, then:
as §1, with “Clotting is concluded by incubation at 4° C. overnight, then centrifugation is carried out at 6000 g for 10 minutes.” left out, “Serum is suitably diluted using physiological saline solution.” left out
100 μl of serum dilution are mixed with 100 μl of […] in 96-well plates and incubated at room temperature for 10 minutes. The optical density is then determined at a wavelength of 492 nm using an automatic plate-reading apparatus (SLT Spectra). The triglyceride/cholesterol concentration contained in the samples is determined with the aid of a standard curve measured in parallel. […]

A further assay relates to CETP. Kind of assay: Determination of the CETP activity ex vivo after intravenous administration. The class given is in vivo, Syrian golden hamsters. Particulars: 20 mg/kg intravenous. The protocol:
as §1
Determination of the CETP activity
After intravenous administration of 20 mg/kg of the compound from Example 42, an about 50% reduction of the CETP activity measured ex vivo is found over a period of at least 2 hours. […]

Setting [4] is: 2×45 mg/kg per os, 24 hours after the first administration.

On to `OCc1c(-c2ccc(F)cc2)nc(C2CCCCCC2)c(C(F)c2ccc(C(F)(F)F)cc2)c1-c1ccc(F)cc1` (stereo not drawn) [Example 53], for which, in assay [1], the pIC50 (commonly the negative decadic logarithm of the IC50, by convention in mol/L) was 6.77.
The molecule `OCc1c(-c2ccc(F)cc2)nc(C2CCCC2)c(C(F)c2ccc(OC(F)(F)F)cc2)c1-c1ccc(F)cc1` (stereo not drawn) [Example 45] showed a pIC50 in assay [1] of 6.52.
Consider `OCc1c(-c2ccc(F)cc2)nc(C2CCCC2)c(C(F)c2ccc(C(F)(F)F)cc2)c1-c1ccc(F)cc1` (single isomer, unassigned) [Example 44], for which, in assay [2] (setting [4]), the “increase of the level of HDL cholesterol versus control group” value was determined as 20% and the “lowering of the level of the triglycerides versus control group” value was found to be 70%.
The molecule `OCc1c(-c2ccc(Cl)cc2)nc(C2CCCC2)c(C(F)c2ccc(C(F)(F)F)cc2)c1-c1ccc(F)cc1` (stereo not drawn) [Example 37] had a pIC50 in assay [1] of 6.52.
`CC(O)c1c(-c2ccc(F)cc2)nc(C2CCCC2)c(C(=O)c2ccc(C(F)(F)F)cc2)c1-c1ccc(F)cc1` (stereo not drawn) [Example 26]: the pIC50 in assay [1] was 6.05.
`CC(C)c1nc(-c2ccc(F)cc2)c(CO)c(-c2ccc(F)cc2)c1C(F)c1ccc(C(F)(F)F)cc1` (stereo not drawn) [Example 31, 2-,4-di-(4-Fluorophenyl)-6-isopropyl-5-[4-(trifluoromethylphenyl)-fluoromethyl]-3-hydroxymethyl-pyridine]: the pIC50 in assay [1] is 6.30.
On to `OCc1c(-c2ccc(F)cc2)nc(C2CCCC2)c(C(F)c2ccc(C(F)(F)F)cc2)c1-c1ccc(F)cc1` (stereo not drawn) [Example 42], for which the “increase of HDL cholesterol values versus control group” value in assay [3] is “about 30%”. Also, in the assay on CETP (ex vivo), the “period over which the about 50% reduction of CETP activity is found” value is “at least 2 hours”. Besides, the “reduction of the CETP activity measured ex vivo” value in the assay on CETP (over a period of at least 2 hours) is “about 50%”. The molecule further showed a pIC50 in assay [1] of 6.77 to 7.05. Also, the “increase of HDL cholesterol levels” value in assay [2] (100 mg/kg per os, 24 hours after administration) is recorded as 30%.
In assay [1], `CC(C)c1nc(-c2ccc(F)cc2)c(CO)c(-c2ccc(F)cc2)c1C=Cc1cccc(C(F)(F)F)c1` [Example 83, 2,4-di-(4-Fluorophenyl)-6-isopropyl-5-[2-(3-trifluoromethylphenyl)vinyl]-3-hydroxymethyl-pyridine] gave a pIC50 of 5.30.
`CC(C)c1nc(-c2ccc(F)cc2)c(C(C)O)c(-c2ccc(F)cc2)c1C(F)c1ccc(C(F)(F)F)cc1` (stereo not drawn) [Example 3, 4,6-Bis-(p-fluorophenyl)-2-isopropyl-3-[(p-trifluoromethylphenyl)-(fluoro)methyl]5-(1-hydroxyethyl)pyridine]: the pIC50 in assay [1] was 6.10. Against the preceding molecule, the pIC50 is 0.80 log units higher.
Same read-out and setting: next, `O=C(c1ccc(C(F)(F)F)cc1)c1c(C2CCCC2)nc(-c2cccc(C(F)(F)F)c2)c(CO)c1-c1ccc(F)cc1` [Example 14]: 7.15; `CC(C)c1nc(-c2ccc(F)cc2)c(CO)c(-c2cccc(Cl)c2)c1Cc1ccc(C(F)(F)F)cc1` [Example 63]: 6.00.
In assay [1], `OCc1c(-c2ccc(F)cc2)nc(C2CCCCC2)c(C(F)c2ccc(C(F)(F)F)cc2)c1-c1ccc(F)cc1` (stereo not drawn) [Example 51] gave a pIC50 of 6.40.
`OCc1c(-c2ccc(F)cc2)nc(C2CCCC2)c(C(F)c2ccc3ccccc3c2)c1-c1ccc(F)cc1` (stereo not drawn) [Example 68]: the negative logarithm of the IC50 (pIC50) in assay [1] was 7.10.
